Data as given in ChEMBL document CHEMBL1201862, “PubChem BioAssay data set” (2004).
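Test compounds were applied to cells in 96-well plates for 48 hours at 5 doses. At the GI50, growth is halved.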 Active and inactive are the calls of the source. No stated cut-off is given here; in the data, active = GI50 up to about 1.1 µM and inactive = higher.

How the values were obtained:
Experiment in all cases: inhibition of tumour cell growth, NCI panel, 48 h
HT-29 = test system: HT-29
SN12C = test system: SN12C
CAKI-1 = test system: CAKI-1
NCI-H522 = test system: NCI-H522
ACHN = test system: ACHN
BT-549 = test system: BT-549
COLO 205 = test system: COLO 205
MDA-MB-435 = test system: MDA-MB-435
UACC-257 = test system: UACC-257
MOLT-4 = test system: MOLT-4
Malme-3M = test system: Malme-3M
OVCAR-5 = test system: OVCAR-5
SW-620 = test system: SW-620
M14 = test system: M14
TK-10 = test system: TK-10
OVCAR-4 = test system: OVCAR-4
PC-3 = test system: PC-3
MDA-N = test system: MDA-N
RPMI-8226 = test system: RPMI-8226
SR = test system: SR
NCI-H23 = test system: NCI-H23
HOP-92 = test system: HOP-92
SNB-19 = test system: SNB-19
UACC-62 = test system: UACC-62
EKVX = test system: EKVX
HCC 2998 = test system: HCC 2998
HOP-62 = test system: HOP-62
SNB-75 = test system: SNB-75
MCF7 = test system: MCF7
SF-268 = test system: SF-268
DU-145 = test system: DU-145
UO-31 = test system: UO-31
786-0 = test system: 786-0
A549 = test system: A549
HCT-116 = test system: HCT-116
U-251 = test system: U-251
SK-MEL-5 = test system: SK-MEL-5
SK-MEL-28 = test system: SK-MEL-28
IGROV-1 = test system: IGROV-1
A498 = test system: A498
CCRF-CEM = test system: CCRF-CEM
NCI-H460 = test system: NCI-H460
SF-539 = test system: SF-539
OVCAR-8 = test system: OVCAR-8
SK-OV-3 = test system: SK-OV-3
RXF 393 = test system: RXF 393
HL-60 = test system: HL-60
HCT-15 = test system: HCT-15
LOX IMVI = test system: LOX IMVI
Hs-578T = test system: Hs-578T
NCI-H226 = test system: NCI-H226
T47D = test system: T47D
SF-295 = test system: SF-295
NCI/ADR-RES = test system: NCI/ADR-RES
SK-MEL-2 = test system: SK-MEL-2
OVCAR-3 = test system: OVCAR-3
MDA-MB-231 = test system: MDA-MB-231
K562 = test system: K562
KM12 = test system: KM12

For `COCOc1ccc(C(=O)C(C)c2ccc(OCOC)cc2OCOC)c(O)c1` (centres undefined), the GI50 (HT-29) was > 100 µM (inactive), the GI50 (SN12C) was > 100 µM (inactive) and the GI50 (CAKI-1) was 52.1 µM (inactive). For the same compound, the GI50 (NCI-H522) was 41.5 µM (inactive), the GI50 (ACHN) was > 100 µM (inactive) and the GI50 (BT-549) was 60.5 µM (inactive). For the same compound, the GI50 (COLO 205) was > 100 µM (inactive), the GI50 (MDA-MB-435) was 71.3 µM (inactive) and the GI50 (UACC-257) was 56.4 µM (inactive). For the same compound, the GI50 (MOLT-4) was 42.6 µM (inactive), the GI50 (Malme-3M) was > 100 µM (inactive) and the GI50 (OVCAR-5) was > 100 µM (inactive). The GI50 (SW-620) was > 100 µM (inactive), the GI50 (M14) was > 100 µM (inactive) and the GI50 (TK-10) was > 100 µM (inactive). The GI50 (OVCAR-4) was > 100 µM (inactive), the GI50 (PC-3) was 48.9 µM (inactive) and the GI50 (MDA-N) was 52.8 µM (inactive). For the same compound, the GI50 (RPMI-8226) was 71.1 µM (inactive), the GI50 (SR) was 40.7 µM (inactive) and the GI50 (NCI-H23) was 60.8 µM (inactive). The GI50 (HOP-92) was 48.1 µM (inactive), the GI50 (SNB-19) was > 100 µM (inactive) and the GI50 (UACC-62) was > 100 µM (inactive). The GI50 (EKVX) was 83.6 µM (inactive), the GI50 (HCC 2998) was > 100 µM (inactive) and the GI50 (HOP-62) was > 100 µM (inactive). The GI50 (SNB-75) was 33.5 µM (inactive), the GI50 (MCF7) was 68.2 µM (inactive) and the GI50 (SF-268) was > 100 µM (inactive). The GI50 (DU-145) was > 100 µM (inactive), the GI50 (UO-31) was 33.2 µM (inactive) and the GI50 (786-0) was > 100 µM (inactive). For the same compound, the GI50 (A549) was 97.3 µM (inactive), the GI50 (HCT-116) was > 100 µM (inactive) and the GI50 (U-251) was > 100 µM (inactive). For the same compound, the GI50 (SK-MEL-5) was 37 µM (inactive), the GI50 (SK-MEL-28) was > 100 µM (inactive) and the GI50 (IGROV-1) was > 100 µM (inactive). The GI50 (A498) was > 100 µM (inactive), the GI50 (CCRF-CEM) was 83.4 µM (inactive) and the GI50 (NCI-H460) was > 100 µM (inactive). The GI50 (SF-539) was > 100 µM (inactive), the GI50 (OVCAR-8) was > 100 µM (inactive) and the GI50 (SK-OV-3) was > 100 µM (inactive). For the same compound, the GI50 (RXF 393) was 37.2 µM (inactive), the GI50 (HL-60) was 30.9 µM (inactive) and the GI50 (HCT-15) was 78.9 µM.

In the case of `O=CC1C(Cl)=Nc2nc3ccccc3n2C1c1ccccc1` (centres undefined), the GI50 (HT-29) is reported as 19.1 µM (inactive), the GI50 (SN12C) is reported as 20.7 µM (inactive) and the GI50 (CAKI-1) is reported as 21.4 µM (inactive). For the same compound, the GI50 (NCI-H522) was 14.3 µM (inactive), the GI50 (ACHN) was 17.4 µM (inactive) and the GI50 (BT-549) was 15.2 µM (inactive). The GI50 (COLO 205) was 19.2 µM (inactive), the GI50 (MDA-MB-435) was 38.5 µM (inactive) and the GI50 (UACC-257) was 22.6 µM (inactive). For the same compound, the GI50 (LOX IMVI) was 15.5 µM (inactive), the GI50 (Malme-3M) was 23.9 µM (inactive) and the GI50 (OVCAR-5) was 23.2 µM (inactive). The GI50 (SW-620) was 19.4 µM (inactive), the GI50 (M14) was 23.7 µM (inactive) and the GI50 (TK-10) was 26.3 µM (inactive). For the same compound, the GI50 (Hs-578T) was 0.741 µM (active), the GI50 (OVCAR-4) was 15.2 µM (inactive) and the GI50 (NCI-H226) was 20.2 µM (inactive). The GI50 (PC-3) was 17.3 µM (inactive), the GI50 (T47D) was 17.1 µM (inactive) and the GI50 (SF-295) was > 100 µM (inactive). For the same compound, the GI50 (RPMI-8226) was 14 µM (inactive), the GI50 (SR) was 0.861 µM (active) and the GI50 (NCI-H23) was 23.4 µM (inactive). The GI50 (HOP-92) was 10.4 µM (inactive), the GI50 (SNB-19) was 25.5 µM (inactive) and the GI50 (UACC-62) was 24.7 µM (inactive). The GI50 (NCI/ADR-RES) was 24 µM (inactive), the GI50 (EKVX) was 25.2 µM (inactive) and the GI50 (HCC 2998) was 18.2 µM (inactive). For the same compound, the GI50 (SK-MEL-2) was 12 µM (inactive), the GI50 (HOP-62) was 18.1 µM (inactive) and the GI50 (SNB-75) was 17 µM (inactive). For the same compound, the GI50 (MCF7) was 20.4 µM (inactive), the GI50 (SF-268) was 16.8 µM (inactive) and the GI50 (DU-145) was 16 µM (inactive). For the same compound, the GI50 (UO-31) was 14.7 µM (inactive), the GI50 (786-0) was 15.6 µM (inactive) and the GI50 (A549) was 23.8 µM (inactive). For the same compound, the GI50 (OVCAR-3) was 23.2 µM (inactive), the GI50 (HCT-116) was 22.1 µM (inactive) and the GI50 (U-251) was 18.2 µM (inactive). The GI50 (SK-MEL-5) was 19.6 µM (inactive), the GI50 (SK-MEL-28) was 14.3 µM (inactive) and the GI50 (IGROV-1) was 15.9 µM (inactive). For the same compound, the GI50 (MDA-MB-231) was 17.1 µM (inactive), the GI50 (A498) was 3.01 µM (inactive) and the GI50 (CCRF-CEM) was 12.4 µM (inactive). The GI50 (NCI-H460) was 55.2 µM (inactive), the GI50 (SF-539) was 18.1 µM (inactive) and the GI50 (OVCAR-8) was 21.4 µM (inactive). The GI50 (RXF 393) was 13.7 µM (inactive), the GI50 (HL-60) was 20 µM (inactive) and the GI50 (HCT-15) was 16.2 µM. For the same compound, the GI50 (K562) was 15.2 µM (inactive) and the GI50 (KM12) was 23.4 µM (inactive).
